In patent US10745357B2, “Process for preparing quinolin-2-yl-phenylamine derivatives and their salts” (priority 2016, dated 2020):
≈ marks a conversion by molar mass, not a printed value.

Columns and labels:
[1] = Aqueous solubility in four aqueous buffers with distinct pH values; format: physicochemical; conditions: for solubility at 15 min / solubility at 1 h: thermodynamic from solid; for Solubility in aqueous solutions (in words): summary of the four buffers
Protocol: The solubility properties of the generated solid states were studied in four different aqueous buffers with distinct pH values. Approximately 250 mg of each sample was mixed with 2.5 ml solvent and stirred.

[2] = Hygroscopicity by Dynamic Vapor Sorption Analysis (DVS); format: physicochemical; conditions: for Reversibility of water uptake / weight increase / Humidity absorption (in words) / Weight increase (hygroscopicity) / Changes of the crystalline form associated with water uptake: DVS; for Humidity absorption (in words): 0 to 95% RH; for Weight increase (hygroscopicity): humidity 0 to 95% RH, maximum
Protocol: The hygroscopicity was determined by Dynamic Vapor Sorption Analysis (DVS). Approximately 200 mg of each solid state were weight on a sample plate and subjected to the apparatus. The humidity inside was varied in a range from 0 to 95% RH and the mass change (dm [%]) of the samples measured continuously.

[3] = tested on: HIV-1 replication; conditions: prevents export of viral RNA from nucleus to cytoplasm in infected cells; cited from earlier work
[4] = phase I trials; dose levels up to 200 mg; without clinically significant abnormal results; cited from earlier work
[5] = tested on: HIV; conditions: preclinical; lasted for several weeks after cessation of treatment; cited from earlier work
[6] = tested on: normal cellular splicing; conditions: cited from earlier work
[7] = aqueous buffer, fassif, FaSSiF (SIF-powder), 15 min
[8] = aqueous buffer, fassif, FaSSiF (SIF-powder), 1 h
[9] = aqueous buffer, pH 2.2, simulated gastric fluid, 0.01N HCl pH ~2.2, 15 min
[10] = aqueous buffer, pH 2.2, simulated gastric fluid, 0.01N HCl pH ~2.2, 1 h
[11] = aqueous buffer, pH 4.5, aqueous buffer, 20 mM Na-acetate pH 4.5, 15 min
[12] = aqueous buffer, pH 4.5, aqueous buffer, 20 mM Na-acetate pH 4.5, 1 h
[13] = aqueous buffer, pH 6.8, aqueous buffer, 50 mM KH2PO4 pH 6.8, 15 min
[14] = aqueous buffer, pH 6.8, aqueous buffer, 50 mM KH2PO4 pH 6.8, 1 h

| Structure (SMILES) | Solubility in aqueous solutions (in words) [1] | Reversibility of water uptake / weight increase [2] | Humidity absorption (in words) [2] | Weight increase (hygroscopicity) [2] | Relative weight change (dm) ([2]; RH 40% (start)) | Relative weight change (dm) ([2]; RH 40 → 0% (first step to 0)) | Relative weight change (dm) ([2]; RH 95 → 40% (desorption)) | Relative weight change (dm) ([2]; RH → 0% (second step to 0)) | Relative weight change (dm) ([2]; RH → 35% (final step)) | Relative weight change (dm) ([2]; RH → 75%) | Relative weight change (dm) ([2]; RH → 95%) | solubility at 15 min [1, 7] | solubility at 1 h [1, 8] | solubility at 15 min [1, 9] | solubility at 1 h [1, 10] | solubility at 15 min [1, 11] | solubility at 1 h [1, 12] | solubility at 15 min [1, 13] | solubility at 1 h [1, 14] | Changes of the crystalline form associated with water uptake [2] | other results |
| --- | --- | --- | --- | --- | --- | --- | --- | --- | --- | --- | --- | --- | --- | --- | --- | --- | --- | --- | --- | --- | --- |
| FC(F)(F)Oc1ccc(Nc2ccc3cccc(Cl)c3n2)cc1.O=S(=O)(O)O [H2SO4, (8-chloro-quinolin-2-yl)-(4-trifluoromethoxyphenyl)-amine] | first-rate solubility | reversible | low hygroscopicity | ≤ 3.2% | 0% | −0.11% | 0.03% | −0.14% | −0.04% | 0.32% | 3.2% |  |  |  |  |  |  |  |  |  | solubility at 15 min ([1]; aqueous buffer, 20 mM Na-acetate pH 4.5, 15 min): 0.093 mg/mL; solubility at 1 h ([1]; aqueous buffer, 20 mM Na-acetate pH 4.5, 1 h): 0.139 mg/mL; solubility at 15 min ([1]; aqueous buffer, 50 mM KH2PO4 pH 6.8, 15 min): 0.035 mg/mL; solubility at 1 h ([1]; aqueous buffer, 50 mM KH2PO4 pH 6.8, 1 h): 0.114 mg/mL; solubility at 15 min ([1]; simulated gastric fluid, 0.01N HCl pH ~2.2, 15 min): 0.089 mg/mL; solubility at 1 h ([1]; simulated gastric fluid, 0.01N HCl pH ~2.2, 1 h): 0.152 mg/mL; solubility at 15 min ([1]; FaSSiF (SIF-powder), 15 min): 0.109 mg/mL; solubility at 1 h ([1]; FaSSiF (SIF-powder), 1 h): 0.157 mg/mL |
| FC(F)(F)Oc1ccc(Nc2ccc3cccc(Cl)c3n2)cc1.O=S(=O)(O)c1ccccc1 [besylate, (8-chloro-quinolin-2-yl)-(4-trifluoromethoxyphenyl)-amine] |  | reversible | low hygroscopicity | up to 1.9% | 0% | −0.04% | 1.1% | −0.09% | 1.0% | 0.19% | 1.9% | 0.077 mg/mL | 0.045 mg/mL | 0.023 mg/mL | 0.032 mg/mL | 0.024 mg/mL | 0.016 mg/mL | 0.003 mg/mL | 0.007 mg/mL | only minor |  |
| Cc1ccc(S(=O)(=O)O)cc1.FC(F)(F)Oc1ccc(Nc2ccc3cccc(Cl)c3n2)cc1 [tosylate, (8-chloro-quinolin-2-yl)-(4-trifluoromethoxyphenyl)-amine] |  |  | absorbs more or less not any humidity |  | 0% | −0.05% | −0.03% | −0.09% | −0.05% | 0.05% | 0.24% | 0.03 mg/mL | 0.013 mg/mL | 0.006 mg/mL | 0.01 mg/mL |  | 0.003 mg/mL |  |  |  |  |

The next lines start with results.

| Solubility in aqueous solutions (in words) [1] | Reversibility of water uptake / weight increase [2] | Humidity absorption (in words) [2] | Weight increase (hygroscopicity) [2] | Relative weight change (dm) ([2]; RH 40% (start)) | Relative weight change (dm) ([2]; RH 40 → 0% (first step to 0)) | Relative weight change (dm) ([2]; RH 95 → 40% (desorption)) | Relative weight change (dm) ([2]; RH → 0% (second step to 0)) | Relative weight change (dm) ([2]; RH → 35% (final step)) | Relative weight change (dm) ([2]; RH → 75%) | Relative weight change (dm) ([2]; RH → 95%) | solubility at 15 min [1, 7] | solubility at 1 h [1, 8] | solubility at 15 min [1, 9] | solubility at 1 h [1, 10] | solubility at 15 min [1, 11] | solubility at 1 h [1, 12] | solubility at 15 min [1, 13] | solubility at 1 h [1, 14] | Changes of the crystalline form associated with water uptake [2] | Structure (SMILES) | other results |
| --- | --- | --- | --- | --- | --- | --- | --- | --- | --- | --- | --- | --- | --- | --- | --- | --- | --- | --- | --- | --- | --- |
| first-rate solubility | irreversible |  |  | 0% | −0.11% | 7.8% | 2.8% | 5.1% | 1.7% | 14.3% | 0.111 mg/mL | 0.198 mg/mL | 0.116 mg/mL | 0.147 mg/mL | 0.074 mg/mL | 0.136 mg/mL | 0.068 mg/mL | 0.104 mg/mL | significant changes | Cl.FC(F)(F)Oc1ccc(Nc2ccc3cccc(Cl)c3n2)cc1 [HCl, (8-chloro-quinolin-2-yl)-(4-trifluoromethoxyphenyl)-amine] |  |
|  |  | absorbs more or less not any humidity |  | 0% | 0% | 0.03% | 0.02% | 0.02% | 0.02% | 0.15% | 0.064 mg/mL (≈ 189 µM) | 0.061 mg/mL (≈ 180 µM) |  |  |  |  |  |  |  | FC(F)(F)Oc1ccc(Nc2ccc3cccc(Cl)c3n2)cc1 [free base, (8-chloro-quinolin-2-yl)-(4-trifluoromethoxy-phenyl)-amine] | HIV replication [3]: inhibits HIV replication; Tolerability [4]: well tolerated; Reduction of viral load [5]: sustained reduction of viral load; Solubility ([1]; 0.01N HCl pH ~2.2, 15 min): 0.003 mg/mL (≈ 8.86 µM); Solubility ([1]; 0.01N HCl pH ~2.2, 1 h): 0.004 mg/mL (≈ 11.8 µM); Solubility in aqueous solutions with different pH-values ([1]; compound from reworked WO 2010/143169 procedure, recrystallized, pH values simulating physiological conditions): virtual insolubility; Selectivity / effect on normal cellular splicing [6]: doesn't affect normal cellular splicing |
|  | irreversible |  |  | 0% |  |  |  |  |  |  |  |  |  |  | 0.048 mg/mL (≈ 142 µM) | 0.05 mg/mL (≈ 148 µM) | 0.018 mg/mL (≈ 53.1 µM) | 0.023 mg/mL (≈ 67.9 µM) | significant changes | FC(F)(F)Oc1ccc(Nc2ccc3cccc(Cl)c3n2)cc1 [hemi-edisylate, (8-chloro-quinolin-2-yl)-(4-trifluoromethoxyphenyl)-amine] | Solubility ([1]; 0.01N HCl pH ~2.2, 15 min): 0.075 mg/mL (≈ 221 µM); Solubility ([1]; 0.01N HCl pH ~2.2, 1 h): 0.065 mg/mL (≈ 192 µM); Relative weight change (dm) ([2]; RH 40 → 0% (first step to 0), listed as Hemiedisylate salt): −0.65%; Relative weight change (dm) ([2]; RH 95 → 40% (desorption), listed as Hemiedisylate salt): 3.5%; Relative weight change (dm) ([2]; RH → 0% (second step to 0), listed as Hemiedisylate salt): 0.4%; Relative weight change (dm) ([2]; RH → 35% (final step), listed as Hemiedisylate salt): 2.9%; Relative weight change (dm) ([2]; RH → 75%, listed as Hemiedisylate salt): 0.74%; Relative weight change (dm) ([2]; RH → 95%, listed as Hemiedisylate salt): 36.2% |
